Where “and” joins values, the source holds several entries; their conditions need not be identical. Equal values may be shown once. Toxic doses and inconclusive results are not listed. Rule as the data show it: active = T/C of 150% or more; inactive = T/C below 125%.
Test system: L1210 leukemia ip in BDF1 mice, survival T/C
Assay: NCI In Vivo Anticancer Drug Screen. Data for tumor model L1210 Leukemia (intraperitoneal) in B6D2F1 (BDF1) mice
Details: endpoint: mean survival time, higher = longer survival
Procedure, shortened: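 Ratio derived from survival: compound-dosed mice over vehicle-dosed mice, all bearing a transplantable tumor.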

[1] = dose: 100.0 mg/kg/injection, schedule: Q01DX009 (ip), vehicle: Klucel (hydroxypropylcellulose) (HPC)
[2] = dose: 100.0 mg/kg/injection, schedule: Q04DX003 (ip), vehicle: Klucel (hydroxypropylcellulose) (HPC)
[3] = dose: 200.0 mg/kg/injection, schedule: Q01DX009 (ip), vehicle: Klucel (hydroxypropylcellulose) (HPC)
[4] = dose: 200.0 mg/kg/injection, schedule: Q04DX003 (ip), vehicle: Klucel (hydroxypropylcellulose) (HPC)
[5] = dose: 400.0 mg/kg/injection, schedule: Q04DX003 (ip), vehicle: Klucel (hydroxypropylcellulose) (HPC)
[6] = dose: 100.0 mg/kg/injection, schedule: Q01DX001 (ip), vehicle: saline
[7] = dose: 200.0 mg/kg/injection, schedule: Q01DX001 (ip), vehicle: saline

Measured: T/C

CCOC(=O)CC(=O)Cc1cccc([N+](=O)[O-])c1
inactive: [1] 91 % of control | [2] 100 % of control | [3] 88 % of control | [4] 107 % of control | [5] 107 % of control

C=CCc1ccc(OC(=O)Nc2cccc3ccccc23)c(OC)c1
inactive: dose: 100.0 mg/kg/injection, schedule: Q04DX002 (ip), vehicle: Klucel (hydroxypropylcellulose) (HPC) 96 % of control | dose: 200.0 mg/kg/injection, schedule: Q04DX002 (ip), vehicle: Klucel (hydroxypropylcellulose) (HPC) 124 % of control | dose: 400.0 mg/kg/injection, schedule: Q04DX002 (ip), vehicle: Klucel (hydroxypropylcellulose) (HPC) 93 % of control

COc1ccccc1C[N+](C)(C)C
inactive: dose: 20.0 mg/kg/injection, schedule: Q01DX001 (ip), vehicle: saline 95 % of control | dose: 20.0 mg/kg/injection, schedule: Q01DX009 (ip), vehicle: saline 108 % of control | dose: 40.0 mg/kg/injection, schedule: Q01DX001 (ip), vehicle: saline 97 % of control | dose: 40.0 mg/kg/injection, schedule: Q01DX009 (ip), vehicle: saline 108 % of control | dose: 80.0 mg/kg/injection, schedule: Q01DX001 (ip), vehicle: saline 102 % of control

O=C1c2ccccc2C(=O)N1CC(=O)N(C(=O)NC1CCCCC1)C1CCCCC1
inactive: dose: 100.0 mg/kg/injection, schedule: Q01DX001 (ip), vehicle: water 109 % of control | dose: 100.0 mg/kg/injection, schedule: Q01DX009 (ip), vehicle: water 103 % of control | dose: 100.0 mg/kg/injection, schedule: Q04DX003 (ip), vehicle: water 94 % of control | dose: 200.0 mg/kg/injection, schedule: Q01DX001 (ip), vehicle: water 104 % of control | dose: 200.0 mg/kg/injection, schedule: Q01DX009 (ip), vehicle: water 95 % of control | dose: 200.0 mg/kg/injection, schedule: Q04DX003 (ip), vehicle: water 96 % of control | dose: 400.0 mg/kg/injection, schedule: Q01DX001 (ip), vehicle: water 98 % of control | dose: 400.0 mg/kg/injection, schedule: Q01DX009 (ip), vehicle: water 103 % of control | dose: 400.0 mg/kg/injection, schedule: Q04DX003 (ip), vehicle: water 97 % of control

Cc1cc2c(cc1C)N(C(=O)CN1CCOCC1)CC(=O)N2
inactive: dose: 50.0 mg/kg/injection, schedule: Q01DX009 (ip), vehicle: acetone 95 % of control | dose: 100.0 mg/kg/injection, schedule: Q01DX009 (ip), vehicle: acetone 88 % of control | dose: 100.0 mg/kg/injection, schedule: Q04DX003 (ip), vehicle: acetone 98 % of control | dose: 200.0 mg/kg/injection, schedule: Q01DX009 (ip), vehicle: acetone 95 % of control | dose: 200.0 mg/kg/injection, schedule: Q04DX003 (ip), vehicle: acetone 97 % of control | dose: 400.0 mg/kg/injection, schedule: Q04DX003 (ip), vehicle: acetone 92 % of control

Cn1ncc2c(NCc3ccccc3)ncnc21
inactive: [6] 97 % of control | [7] 110 % of control

CCCCC(=O)N/N=C/c1cc2c(cc1[N+](=O)[O-])OCO2 (tested in a mixture with another compound)
inactive: dose: 100.0 mg/kg/injection, schedule: Q01DX001 (ip), vehicle: carboxymethylcellulose (CMC) 91 % of control | dose: 200.0 mg/kg/injection, schedule: Q01DX001 (ip), vehicle: carboxymethylcellulose (CMC) 91 % of control | dose: 400.0 mg/kg/injection, schedule: Q01DX001 (ip), vehicle: carboxymethylcellulose (CMC) 91 % of control

CCCCCCCCCCCCCCC1CC(=O)OC1=O (stereo unspecified)
inactive: [1] 92 % of control | [2] 86 % of control | [3] 86 % of control | [4] 88 % of control | [5] 93 % of control

CC(=O)N(C)C1=C(Sc2ccc([N+](=O)[O-])cc2)C(=O)c2ccccc2C1=O
inactive: dose: 50.0 mg/kg/injection, schedule: Q04DX003 (ip), vehicle: other 92 % of control | dose: 100.0 mg/kg/injection, schedule: Q01DX001 (ip), vehicle: other 97 % of control | dose: 100.0 mg/kg/injection, schedule: Q04DX003 (ip), vehicle: other 97 % of control | dose: 200.0 mg/kg/injection, schedule: Q01DX001 (ip), vehicle: other 96 % of control | dose: 200.0 mg/kg/injection, schedule: Q04DX003 (ip), vehicle: other 86 % of control | dose: 400.0 mg/kg/injection, schedule: Q01DX001 (ip), vehicle: other 92 % of control

C=COC(=O)NCC(=O)O
inactive: [6] 91 % of control | [7] 97 % of control | dose: 400.0 mg/kg/injection, schedule: Q01DX001 (ip), vehicle: saline 92 % of control

CCOC(=O)CNc1ccc(C(=O)OCC)s1
inactive: dose: 31.25 mg/kg/injection, schedule: Q01DX009 (ip), vehicle: acetone 98 % of control | dose: 62.5 mg/kg/injection, schedule: Q01DX009 (ip), vehicle: acetone 100 % of control | dose: 125.0 mg/kg/injection, schedule: Q01DX009 (ip), vehicle: acetone 96 % of control | dose: 190.0 mg/kg/injection, schedule: Q01DX009 (ip), vehicle: saline 94 % of control | dose: 285.0 mg/kg/injection, schedule: Q01DX009 (ip), vehicle: saline 88 % of control

O=C(O)c1ccccc1C(=O)Nc1ccccc1[N+](=O)[O-]
inactive: dose: 100.0 mg/kg/injection, schedule: Q01DX001 (ip), vehicle: saline with Tween-80 91 % of control | dose: 200.0 mg/kg/injection, schedule: Q01DX001 (ip), vehicle: saline with Tween-80 91 % of control | dose: 400.0 mg/kg/injection, schedule: Q01DX001 (ip), vehicle: saline with Tween-80 91 % of control

Cc1ncc([N+](=O)[O-])n1C
inactive: [2] 100 % of control | [4] 100 % of control | [5] 97 % of control

CCN(CC)C(=O)COC(=O)c1cccc2[nH]ccc12
inactive: dose: 100.0 mg/kg/injection, schedule: Q04DX003 (ip), vehicle: saline with Tween-80 102 % of control | dose: 200.0 mg/kg/injection, schedule: Q04DX003 (ip), vehicle: saline with Tween-80 100 % of control | dose: 400.0 mg/kg/injection, schedule: Q04DX003 (ip), vehicle: saline with Tween-80 102 % of control

COc1ccc(OC)c(/C=N/NC(=O)C[N+](C)(C)C)c1
inactive: dose: 50.0 mg/kg/injection, schedule: Q01DX009 (ip), vehicle: saline with Tween-80 88 % of control | dose: 100.0 mg/kg/injection, schedule: Q01DX009 (ip), vehicle: saline with Tween-80 86 % of control

CC(C)N(c1ccc(C(=O)O)cc1)C(C)C
inactive: dose: 100.0 mg/kg/injection, schedule: Q01DX009 (ip), vehicle: carboxymethylcellulose (CMC) 102 % of control and 109 % of control | dose: 100.0 mg/kg/injection, schedule: Q04DX002 (ip), vehicle: carboxymethylcellulose (CMC) 96 % of control and 98 % of control | dose: 100.0 mg/kg/injection, schedule: Q04DX003 (ip), vehicle: carboxymethylcellulose (CMC) 101 % of control | dose: 200.0 mg/kg/injection, schedule: Q01DX009 (ip), vehicle: carboxymethylcellulose (CMC) 102 % of control and 103 % of control | dose: 200.0 mg/kg/injection, schedule: Q04DX002 (ip), vehicle: carboxymethylcellulose (CMC) 95 % of control and 104 % of control | dose: 200.0 mg/kg/injection, schedule: Q04DX003 (ip), vehicle: carboxymethylcellulose (CMC) 98 % of control | dose: 400.0 mg/kg/injection, schedule: Q01DX009 (ip), vehicle: carboxymethylcellulose (CMC) 95 % of control and 97 % of control | dose: 400.0 mg/kg/injection, schedule: Q04DX002 (ip), vehicle: carboxymethylcellulose (CMC) 93 % of control and 86 % of control | dose: 400.0 mg/kg/injection, schedule: Q04DX003 (ip), vehicle: carboxymethylcellulose (CMC) 97 % of control

O/N=C/c1cnccn1
inactive: [6] 105 % of control | [7] 105 % of control

NC(CCl)=NCCCN1CCOCC1
inactive: dose: 100.0 mg/kg/injection, schedule: Q04DX002 (ip), vehicle: saline 114 % of control | dose: 200.0 mg/kg/injection, schedule: Q04DX002 (ip), vehicle: saline 97 % of control
